Measured values taken from patent publication US7163698B2, “Controlled drug delivery system using the conjugation of drug to biodegradable polyester” (priority 1998, dated 2007).
pIC50: −log10 of the molar value. Read-outs that look alike come from different tables or passages of the source.

Columns and labels:
[1] = system: human hepatoblastoma cell line (HepG2); assay: Cytotoxicity MTT assay; type: cell-based; details: HepG2, 72 hrs
Method: Cytotoxicities of doxorubicin and its PLGA oligomer conjugates released from nanoparticles were determined against human hepatoblastoma cell line (HepG2) obtained from Korea Research Institute of Bioscience and Biotechnology. Free doxorubicin and the released fraction from nanoparticles for 19 days incubation were used for determining the inhibition of cell growth using a tetrazolium dye (MTT) assay according to the previously established method [R. I. Freshney, Measurement of Viability and Cytotoxicity, Chapter 19 in Culture of Animal Cells, Third Edition., Wiley-Liss Inc., New York, 1994, pp. 287–307]. Dulbecco's modification of Eagle's MEM (DMEM) was used as a major cell growth medium and a humidified atmosphere (5% CO2) was maintained for cell culture. HepG2 cells harvested in a logarithmic growth phase were seeded on 96 wells at a cell density of 5×10^3 cells/ml. After incubating the cells in a logarithmic phase with various concentrations of free doxorubicin and the released fraction for 72 hrs, the MTT assay was performed and the percentage of cell viability was then determined.

[2] = system: human hepatoblastoma cell line (HepG2); details: literature value; read-out: reported IC50; cited from earlier work
mouse EL4 thymoma cells = details: 240 μg/kg s.c. daily during 12 days, C57BL16 mice
Method: Antitumor activity against solid tumor of free doxorubicin, free PLGA, doxorubicin encapsulated in nanoparticles and doxorubicin conjugated with nanoparticles was evaluated with mouse EL4 thymoma cells. EL4 Cells (2×10^4 cells in 0.1 ml of PBS pH 7.4 buffer) were transplanted into C57BL16 female mice (10 weeks old) subcutaneously on day 0 and drug injection started on day 10, when tumor diameter reached approximately 2 mm.
The mice were divided into five different groups, each group consisting of 6 mice. The first group, control group, was s.c. injected 100 μl PBS pH 7.4 daily during 12 days and the second group free doxorubicin (240 μg/kg body weight). However, the third group was s.c. injected placebo microsphere daily in the first two days, the fourth group nanoparticle conjugated with doxorubicin (2.4 mg/kg body weight) and the fifth group, doxorubicin encapsulated in nanoparticle (1.2 mg/kg body weight).

[3] = with polyester polymer carrier; cited from earlier work

Compound: COc1cccc2c1C(=O)c1c(O)c3c(c(O)c1C2=O)C[C@@](O)(C(=O)CO)C[C@@H]3O[C@H]1C[C@H](N)[C@H](O)[C@H](C)O1 [free doxorubicin, doxorubicin]
- pIC50 [1]: 5.05
- pIC50 [2]: 5.14
- antitumor activity (tumor diameter) (mouse EL4 thymoma cells): significant tumor growth inhibition

Compound: gentamycin
- initial burst effects [3]: over 50%
